{
  "source": "patent US10092551B2",
  "about": "“Spiro-thiazolones” (Hoffmann-La Roche Inc., priority 2014, dated 2018)",
  "data": [
    {"molecular_target": "human V1a receptor (Homo sapiens (Human), UniProt P37288)", "sequence (P37288 whole entry)": "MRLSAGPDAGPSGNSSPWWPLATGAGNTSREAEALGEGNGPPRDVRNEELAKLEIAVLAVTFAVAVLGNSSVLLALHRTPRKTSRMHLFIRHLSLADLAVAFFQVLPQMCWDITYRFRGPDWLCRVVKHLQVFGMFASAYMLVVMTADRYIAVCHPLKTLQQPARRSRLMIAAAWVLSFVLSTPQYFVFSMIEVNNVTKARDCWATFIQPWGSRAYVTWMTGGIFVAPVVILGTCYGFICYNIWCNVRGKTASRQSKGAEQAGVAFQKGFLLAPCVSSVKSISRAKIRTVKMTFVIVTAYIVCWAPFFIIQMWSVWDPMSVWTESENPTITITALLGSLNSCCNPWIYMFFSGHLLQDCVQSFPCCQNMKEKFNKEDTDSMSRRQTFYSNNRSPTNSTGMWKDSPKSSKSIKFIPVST", "test": "human V1a receptor binding studies (3H-Vasopressin, SPA beads)", "settings": "membranes of HEK293 cells transiently transfected with human V1a receptor, Ki by Cheng-Prussoff", "how_it_was_run": "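Membranes from HEK293 cells transiently expressing cloned human V1a receptor, bound on yttrium silicate SPA beads with 4 nM 3H-vasopressin (added stock) and serially diluted compound, 1 h at room temperature. Non-specific binding defined with cold vasopressin; IC50 by non-linear regression, Ki via Cheng-Prusoff.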", "values": [
      {"smiles": "CC/C(=C1\\SC(N2CCC3(CC2)OCc2ccccc23)=NC1=O)c1ccc(Cl)nc1", "note": "[Example 134, (5E)-5-[1-(6-chloropyridin-3-yl)propylidene]-2-(1′H,3H-spiro[2-benzofuran-1,4′-piperidin]-1′-yl)-1,3-thiazol-4(5H)-one]", "pKi hV1a": 8.0},
      {"smiles": "C/C(=C1/SC(N2CCC3(CC2)OC(=O)c2ccccc23)=NC1=O)c1ccc(C)nc1", "note": "[Example 135, 1′-{(5Z)-5-[1-(6-methylpyridin-3-yl)ethylidene]-4-oxo-4,5-dihydro-1,3-thiazol-2-yl}-3H-spiro[2-benzofuran-1,4′-piperidin]-3-one]", "pKi hV1a": 7.9},
      {"smiles": "C/C(=C1\\SC(N2CCC3(CC2)OC(=O)c2ccccc23)=NC1=O)c1ccc(C)nc1", "note": "[Example 136, 1′-{(5E)-5-[1-(6-methylpyridin-3-yl)ethylidene]-4-oxo-4,5-dihydro-1,3-thiazol-2-yl}-3H-spiro[2-benzofuran-1,4′-piperidin]-3-one]", "pKi hV1a": 7.5},
      {"smiles": "C/C(=C1/SC(N2CCC3(CC2)OC(=O)c2ccccc23)=NC1=O)c1ccc(Cl)nc1", "note": "[Example 137, 1′-{(5Z)-5-[1-(6-chloropyridin-3-yl)ethylidene]-4-oxo-4,5-dihydro-1,3-thiazol-2-yl}-3H-spiro[2-benzofuran-1,4′-piperidin]-3-one]", "pKi hV1a": 8.0},
      {"smiles": "C/C(=C1\\SC(N2CCC3(CC2)OC(=O)c2ccccc23)=NC1=O)c1ccc(Cl)nc1", "note": "[Example 138, 1′-{(5E)-5-[1-(6-chloropyridin-3-yl)ethylidene]-4-oxo-4,5-dihydro-1,3-thiazol-2-yl}-3H-spiro[2-benzofuran-1,4′-piperidin]-3-one]", "pKi hV1a": 8.3},
      {"smiles": "O=C1N=C(N2CCC3(CC2)OC(=O)c2ccccc23)SC1=C(C1CC1)C1CC1", "note": "[Example 139, 1′-[5-(dicyclopropylmethylidene)-4-oxo-4,5-dihydro-1,3-thiazol-2-yl]-3H-spiro[2-benzofuran-1,4′-piperidin]-3-one]", "pKi hV1a": 8.5},
      {"smiles": "CC(C)(C)[Si](C)(C)OC/C(=C1/SC(N2CCC3(CC2)OC(=O)c2ccccc23)=NC1=O)c1ccccc1", "note": "[Example 140, 1′-[(5E)-5-(2-{[tert-butyl(dimethyl)silyl]oxy}-1-phenylethylidene)-4-oxo-4,5-dihydro-1,3-thiazol-2-yl]-3H-spiro[2-benzofuran-1,4′-piperidin]-3-one]", "pKi hV1a": 8.9},
      {"smiles": "CC(C)(C)[Si](C)(C)OC/C(=C1\\SC(N2CCC3(CC2)OC(=O)c2ccccc23)=NC1=O)c1ccccc1", "note": "[Example 141, 1′-[(5Z)-5-(2-{[tert-butyl(dimethyl)silyl]oxy}-1-phenylethylidene)-4-oxo-4,5-dihydro-1,3-thiazol-2-yl]-3H-spiro[2-benzofuran-1,4′-piperidin]-3-one]", "pKi hV1a": 7.6},
      {"smiles": "O=C1N=C(N2CCC3(CC2)OC(=O)c2ccccc23)S/C1=C(\\CO)c1ccccc1", "note": "[Example 142, 1′-[(5Z)-5-(2-hydroxy-1-phenylethylidene)-4-oxo-4,5-dihydro-1,3-thiazol-2-yl]-3H-spiro[2-benzofuran-1,4′-piperidin]-3-one]", "pKi hV1a": 8.4},
      {"smiles": "O=C1N=C(N2CCC3(CC2)OC(=O)c2ccccc23)S/C1=C(/CO)c1ccccc1", "note": "[Example 143, 1′-[(5E)-5-(2-hydroxy-1-phenylethylidene)-4-oxo-4,5-dihydro-1,3-thiazol-2-yl]-3H-spiro[2-benzofuran-1,4′-piperidin]-3-one]", "pKi hV1a": 8.8},
      {"smiles": "CC(C)(C)[Si](C)(C)OC/C(=C1/SC(N2CCC3(CC2)OC(=O)c2ccccc23)=NC1=O)c1ccc(Cl)nc1", "note": "[Example 144, 1′-{(5E)-5-[2-{[tert-butyl(dimethyl)silyl]oxy}-1-(6-chloropyridin-3-yl)ethylidene]-4-oxo-4,5-dihydro-1,3-thiazol-2-yl}-3H-spiro[2-benzofuran-1,4′-piperidin]-3-one]", "pKi hV1a": 8.0},
      {"smiles": "O=C1N=C(N2CCC3(CC2)OC(=O)c2ccccc23)S/C1=C(/CO)c1ccc(Cl)nc1", "note": "[Example 145, 1′-{(5E)-5-[1-(6-chloropyridin-3-yl)-2-hydroxyethylidene]-4-oxo-4,5-dihydro-1,3-thiazol-2-yl}-3H-spiro[2-benzofuran-1,4′-piperidin]-3-one]", "pKi hV1a": 8.0},
      {"smiles": "CC(C)(C)[Si](C)(C)OC/C(=C1\\SC(N2CCC3(CC2)OC(=O)c2ccccc23)=NC1=O)c1ccc(Cl)nc1", "note": "[Example 146, 1′-{(5Z)-5-[2-{[tert-butyl(dimethyl)silyl]oxy}-1-(6-chloropyridin-3-yl)ethylidene]-4-oxo-4,5-dihydro-1,3-thiazol-2-yl}-3H-spiro[2-benzofuran-1,4′-piperidin]-3-one]", "pKi hV1a": 7.3},
      {"smiles": "O=C1N=C(N2CCC3(CC2)OC(=O)c2ccccc23)S/C1=C(\\CO)c1ccc(Cl)nc1", "note": "[Example 147, 1′-{(5Z)-5-[1-(6-chloropyridin-3-yl)-2-hydroxyethylidene]-4-oxo-4,5-dihydro-1,3-thiazol-2-yl}-3H-spiro[2-benzofuran-1,4′-piperidin]-3-one]", "pKi hV1a": 8.0},
      {"smiles": "CC(C)/C(=C1\\SC(N2CCC3(CC2)OC(=O)c2ccccc23)=NC1=O)c1ccc(Cl)nc1", "note": "[Example 148, 1′-{(5E)-5-[1-(6-chloropyridin-3-yl)-2-methylpropylidene]-4-oxo-4,5-dihydro-1,3-thiazol-2-yl}-3H-spiro[2-benzofuran-1,4′-piperidin]-3-one]", "pKi hV1a": 6.8},
      {"smiles": "CC/C(=C1\\SC(N2CCC3(CC2)OC(=O)c2ccccc23)=NC1=O)c1ccc(Cl)nc1", "note": "[Example 149, 1′-{(5E)-5-[1-(6-chloropyridin-3-yl)propylidene]-4-oxo-4,5-dihydro-1,3-thiazol-2-yl}-3H-spiro[2-benzofuran-1,4′-piperidin]-3-one]", "pKi hV1a": 8.2},
      {"smiles": "CC/C(=C1/SC(N2CCC3(CC2)OC(=O)c2ccccc23)=NC1=O)c1ccc(Cl)nc1", "note": "[Example 150, 1′-{(5Z)-5-[1-(6-chloropyridin-3-yl)propylidene]-4-oxo-4,5-dihydro-1,3-thiazol-2-yl}-3H-spiro[2-benzofuran-1,4′-piperidin]-3-one]", "pKi hV1a": 9.0},
      {"smiles": "C/C(=C1/SC(N2CCC3(CC2)OCc2ccccc23)=NC1=O)c1ccccc1", "note": "[Example 151, (5Z)-5-(1-phenylethylidene)-2-(1′H,3H-spiro[2-benzofuran-1,4′-piperidin]-1′-yl)-1,3-thiazol-4(5H)-one]", "pKi hV1a": 9.2},
      {"smiles": "C/C(=C1\\SC(N2CCC3(CC2)OCc2ccccc23)=NC1=O)c1ccccc1", "note": "[Example 152, (5E)-5-(1-phenylethylidene)-2-(1′H,3H-spiro[2-benzofuran-1,4′-piperidin]-1′-yl)-1,3-thiazol-4(5H)-one]", "pKi hV1a": 9.0},
      {"smiles": "C/C(=C1\\SC(N2CCC3(CC2)OCc2ccccc23)=NC1=O)c1ccc(C)nc1", "note": "[Example 153, (5E)-5-[1-(6-methylpyridin-3-yl)ethylidene]-2-(1′H,3H-spiro[2-benzofuran-1,4′-piperidin]-1′-yl)-1,3-thiazol-4(5H)-one]", "pKi hV1a": 8.3},
      {"smiles": "CC(C)/C(=C1\\SC(N2CCC3(CC2)OCc2ccccc23)=NC1=O)c1ccc(Cl)cc1", "note": "[Example 154, (5E)-5-[1-(4-chlorophenyl)-2-methylpropylidene]-2-(1′H,3H-spiro[2-benzofuran-1,4′-piperidin]-1′-yl)-1,3-thiazol-4(5H)-one]", "pKi hV1a": 7.8},
      {"smiles": "C/C(=C1\\SC(N2CCC3(CC2)OCc2ccccc23)=NC1=O)c1ncccc1C", "note": "[Example 155, (5E)-5-[1-(3-methylpyridin-2-yl)ethylidene]-2-(1′H,3H-spiro[2-benzofuran-1,4′-piperidin]-1′-yl)-1,3-thiazol-4(5H)-one]", "pKi hV1a": 8.7},
      {"smiles": "C/C(=C1/SC(N2CCC3(CC2)OC(=O)c2ccccc23)=NC1=O)c1ccccc1", "note": "[Example 156, 1′-[(5Z)-4-oxo-5-(1-phenylethylidene)-4,5-dihydro-1,3-thiazol-2-yl]-3H-spiro[2-benzofuran-1,4′-piperidin]-3-one]", "pKi hV1a": 9.3},
      {"smiles": "C/C(=C1\\SC(N2CCC3(CC2)OC(=O)c2ccccc23)=NC1=O)c1ccccc1", "note": "[Example 157, 1′-[(5E)-4-oxo-5-(1-phenylethylidene)-4,5-dihydro-1,3-thiazol-2-yl]-3H-spiro[2-benzofuran-1,4′-piperidin]-3-one]", "pKi hV1a": 7.8},
      {"smiles": "C/C(=C1/SC(N2CCC3(CC2)OCc2ccccc23)=NC1=O)c1ccncc1F", "note": "[Example 158, (5Z)-5-[1-(3-fluoropyridin-4-yl)ethylidene]-2-(1′H,3H-spiro[2-benzofuran-1,4′-piperidin]-1′-yl)-1,3-thiazol-4(5H)-one]", "pKi hV1a": 8.4},
      {"smiles": "CC(C)(C)OC(=O)NC/C(=C1/SC(N2CCC3(CC2)OCc2ccccc23)=NC1=O)c1ccccc1", "note": "[Example 159, tert-butyl {(2E/Z)-2-[4-oxo-2-(1′H,3H-spiro[2-benzofuran-1,4′-piperidin]-1′-yl)-1,3-thiazol-5(4H)-ylidene]-2-phenylethyl}carbamate]", "pKi hV1a": 9.3},
      {"smiles": "O=C1N=C(N2CCC3(CC2)OCc2ccccc23)SC1=C1Cc2ccccc2C1", "note": "[Example 161, 5-(1,3-dihydro-2H-inden-2-ylidene)-2-(1′H,3H-spiro[2-benzofuran-1,4′-piperidin]-1′-yl)-1,3-thiazol-4(5H)-one]", "pKi hV1a": 7.8},
      {"smiles": "C/C(=C1/SC(N2CCC3(CC2)OCc2ncccc23)=NC1=O)c1ccc(Cl)nc1", "note": "[Example 162, (5E/Z)-5-[1-(6-chloropyridin-3-yl)ethylidene]-2-(1′H,7H-spiro[furo[3,4-b]pyridine-5,4′-piperidin]-1′-yl)-1,3-thiazol-4(5H)-one]", "pKi hV1a": 7.9},
      {"smiles": "COCC(COC)=C1SC(N2CCC3(CC2)OCc2ncccc23)=NC1=O", "note": "[Example 163, 5-(1,3-dimethoxypropan-2-ylidene)-2-(1′H,7H-spiro[furo[3,4-b]pyridine-5,4′-piperidin]-1′-yl)-1,3-thiazol-4(5H)-one]", "pKi hV1a": 7.0}
    ]}
  ]
}
